Assay results reported in US5510340A, “Antihypercholesterolemic compounds and related pharmaceutical compositions and methods of use” (SRI International, priority 1992, dated 1996).

Columns and labels:
Cholesterol Biosynthesis = test: In Vivo Cholesterol Biosynthesis Inhibition in Rats with Oral Administration of Test Compounds (compound 13, gavage); parameters: species or system Male Sprague-Dawley rats; details: rat plasma, 7 days; for 14C-Acetate Incorporation / Cholesterol Levels, HDL / 14C-Acetate Incorporation, Inhibition: gavage; for 14C-Acetate Incorporation: control 1200 ± 95; for Cholesterol Levels, HDL / Cholesterol Levels, Total: mean ± S.E.; for Cholesterol Levels, HDL: control 32 ± 2.1; for 14C-Acetate Incorporation, Inhibition: vs control; for Cholesterol Levels, Total: three daily doses via gavage, control 77.6 ± 2.3
Procedure: (b.) In Vivo Cholesterol Biosynthesis Inhibition in Rats with Oral Administration of Test Compounds:
Male Sprague-Dawley rats weighing 120 to 150 g were used. The animals were placed on a cholesterol-free diet immediately upon arrival and housed in a room with a reverse light cycle. One week after they had adapted to the light cycle, the experiment was begun by gavaging the animals three times daily with various amounts of test compound 13 suspended in 1.0 mL of saline. The control group received 1.0 mL of saline alone. On the seventh day of the experiment, sodium 1-^14 C! acetate (20 μCi/rat) was injected intraperitoneally 30 min after the oral administration (gavage) of test compounds and 2 h before the mid-dark point in the diurnal cycle; 4 h after the ^14 C-acetate injection, the animals were killed and blood samples were collected after decapitation. Plasma was obtained by centrifuging blood in an EDTA-treated centrifuge tube at 3000 rpm for 10 min. Cholesterol synthesis was measured by determining the level of ^14 C-labeled nonsaponifiable lipid present in 1.0 mL of plasma; 1.0 mL of plasma was first mixed with 1.0 mL of saline, followed by 5.0 mL of 10% KOH in absolute ethanol. Samples were saponified at 75° C. for 1 h. After cooling, 44,000 dpm, 0.5 nmol of 1,2-^3 H! cholesterol was added to each sample as an internal standard for calculating recovery through the extraction procedure. Samples were extracted once with 5 mL of petroleum ether, and the organic phase was backwashed with 5 mL of saline. The extracts were dried on a nitrogen evaporator, and the residue was reconstituted into 0.5 mL of CHCl3 -MeOH (2:1). The 0.5-mL reconstituted samples were transferred into counting vials containing 2 mL of ethanol, and both ^3 H and ^14 C were counted in 10 mL of scintillation fluid. The ^3 H-cholesterol internal standard recovery value from each sample was used to correct each sample to 100% recovery of ^14 C-cholesterol. The total cholesterol level and HDL in each plasma sample was also measured. The comparison between test groups and the control group was evaluated for both cholesterol levels and ^14 C-acetate incorporation.

[1] = tested on: Cholesterol Levels in Plasma of Rats; test: Assay for Lowering Cholesterol Levels in Rats Fed Drug-Containing Food Ad Libitum; format: in vivo, Male Sprague-Dawley rats; details: rat plasma, mean ± S.E.
Procedure: (d.) Assay for Lowering Cholesterol Levels in Rats Fed Drug-Containing Food Ad Libitum:
Male Sprague-Dawley rats weighing 150 to 200 g were used for this experiment. The animals were divided into groups of six rats each. All groups were kept on a cholesterol-free diet throughout the entire experiment. This diet was prepared by adding the test compound in small portions (usually 100 mg) to 100 g of choleserol-free diet in a 1-liter glass separatory funnel with a stopper. The diet was thoroughly mixed after each addition of the test compound. The resulting diet was kept in a refrigerator at all times. Before feeding, the diet was allowed to warm to room temperature. The animals were housed individually in metabolic cages. All test groups were allowed free access to the cholesterol-free diet containing the proper doses of the test compound. A pair-fed group was assigned to each test group and allowed free access to the cholesterol-free diet only in the amount consumed by its corresponding counterpart on the previous day. The control group was allowed free access to the cholesterol-free diet with no restriction. The food consumption and body weights of all groups were recorded daily. Blood samples were taken from all groups on day 0 and every third or fourth day throughout the entire experiment. Plasma was obtained by drawing blood into EDTA-treated centrifuge tubes and centrifuging at 3000 rpm for 10 min. The total cholesterol level and HDL in each plasma sample were determined using a Gemini autoanalyzer.

**Q.** What does the source list for `CC(C)CCC[C@@H](C)[C@H]1Cc2nnc3c4c2[C@]1(C)CC[C@@H]4[C@@]1(C)CC[C@H](O)C[C@@H]1C3` [Compound 13, pyridazino 3',4',5',6':7,8,14,15!5α-cholestan-3β-ol]?
**A.** 14C-Acetate Incorporation (Cholesterol Biosynthesis; 0.16 mg/rat/day): 696 ± 107 cpm/ml; Cholesterol Levels, HDL (Cholesterol Biosynthesis; 0.16 mg/rat/day): 44.0 ± 10.6 Mg/100 ml; 14C-Acetate Incorporation, Inhibition (Cholesterol Biosynthesis; 0.16 mg/rat/day): 42%; Cholesterol Levels, Total (Cholesterol Biosynthesis; 0.16 mg/rat/day): 66.8 ± 3.4 Mg/100 ml; 14C-Acetate Incorporation (Cholesterol Biosynthesis; 0.33 mg/rat/day): 510 ± 122 cpm/ml; Cholesterol Levels, HDL (Cholesterol Biosynthesis; 0.33 mg/rat/day): 27.6 ± 3.5 Mg/100 ml; 14C-Acetate Incorporation, Inhibition (Cholesterol Biosynthesis; 0.33 mg/rat/day): 58%; Cholesterol Levels, Total (Cholesterol Biosynthesis; 0.33 mg/rat/day): 62.6 ± 2.4 Mg/100 ml; 14C-Acetate Incorporation (Cholesterol Biosynthesis; 1.0 mg/rat/day): 385 ± 47 cpm/ml; Cholesterol Levels, HDL (Cholesterol Biosynthesis; 1.0 mg/rat/day): 28.6 ± 1.9 Mg/100 ml; 14C-Acetate Incorporation, Inhibition (Cholesterol Biosynthesis; 1.0 mg/rat/day): 68%; Cholesterol Levels, Total (Cholesterol Biosynthesis; 1.0 mg/rat/day): 61.4 ± 3.0 Mg/100 ml; 14C-Acetate Incorporation (Cholesterol Biosynthesis; 3.0 mg/rat/day): 383 ± 38 cpm/ml; Cholesterol Levels, HDL (Cholesterol Biosynthesis; 3.0 mg/rat/day): 28.8 ± 4.3 Mg/100 ml; 14C-Acetate Incorporation, Inhibition (Cholesterol Biosynthesis; 3.0 mg/rat/day): 69%; Cholesterol Levels, Total (Cholesterol Biosynthesis; 3.0 mg/rat/day): 60.8 ± 0.9 Mg/100 ml; 14C-Acetate Incorporation (Cholesterol Biosynthesis; 7.5 mg/rat/day): 340 ± 50 cpm/ml; Cholesterol Levels, HDL (Cholesterol Biosynthesis; 7.5 mg/rat/day): 14.3 ± 0.33 Mg/100 ml; 14C-Acetate Incorporation, Inhibition (Cholesterol Biosynthesis; 7.5 mg/rat/day): 72%; Cholesterol Levels, Total (Cholesterol Biosynthesis; 7.5 mg/rat/day): 44.0 ± 1.0 Mg/100 ml; Cholesterol levels, LDL ([1]; Day 0, cholesterol-free diet containing 0.2% inhibitor, control 29 ± 0.9): 34 ± 1.8 mg/100 mL; Cholesterol Levels, Total ([1]; Day 0, cholesterol-free diet containing 0.2% inhibitor, control 70 ± 1): 74 ± 1 mg/100 mL; Cholesterol levels, LDL ([1]; Day 4, cholesterol-free diet containing 0.2% inhibitor, control 28 ± 2): 28 ± 2 mg/100 mL; Cholesterol Levels, Total ([1]; Day 4, cholesterol-free diet containing 0.2% inhibitor, control 77 ± 2): 62 ± 2 mg/100 mL; Cholesterol levels, LDL ([1]; Day 7, cholesterol-free diet containing 0.2% inhibitor, control 26 ± 2): 17 ± 3 mg/100 mL; Cholesterol Levels, Total ([1]; Day 7, diet containing 0.2% inhibitor, control 76 ± 4, ^b significantly lower than Day 0 (P < 0.001), pair-fed (P < 0.005) and control (P < 0.001), ^c significantly lower than pair-fed (P < 0.02)): 46 ± 3 mg/100 mL; Cholesterol levels, LDL ([1]; Day 10, cholesterol-free diet containing 0.2% inhibitor, control 32 ± 1.5): 29 ± 2 mg/100 mL; Cholesterol Levels, Total ([1]; Day 10, cholesterol-free diet containing 0.2% inhibitor, control 81 ± 3): 47 ± 5 mg/100 mL
